For series [1], the system named is DLD-1 colon cancer model. More on the design: method as in PMID 16343446, PMID 17445775. As to conditions: cited from earlier work.
For series [2], the system named is HeLa cells (human cervical carcinoma). As to the kind of experiment: MTT assay, antiproliferative activity in HeLa cells. The following applies: 48 h treatment, 3000 cells per well, read-out: IC50 HeLa (3000 c per w). Format: cell-based. The procedure: (§1) Human cervical carcinoma (HeLa), human alveolar basal adenocarcinoma (A549), and normal human fetal lung fibroblast cell line (MRC-5) were maintained as monolayer culture in the Roswell Park Memorial Institute (RPMI) 1640 nutrient medium (Sigma Chemicals Co, USA). RPMI 1640 nutrient medium was prepared in sterile ionized water, supplemented with penicillin (192 IU mL^−1), streptomycin (200 μg mL^−1), 4-(2-hydroxyethyl)piperazine-1-ethanesulfonic acid (HEPES) (25 mM), L-glutamine (3 mM) and 10 % of heat-inactivated fetal calf serum (FCS; pH 7.2). The cells were grown at 37 °C in 5 % CO2 and humidified air atmosphere, by twice weekly subculture.
(§2) Antiproliferative activity of the ruthenium and osmium complexes was determined using 3-(4,5-dimethylthiazol-yl)-2,5-diphenyltetrazolium bromide (MTT, Sigma–Aldrich) assay.[49] Cells were seeded into 96-well cell culture plates (Thermo Scientific Nunc), at a cell density of 3000 cells per well (HeLa), 7000 cells per well (A549), and 5000 cells per well (MRC-5), in 100 μL of culture medium. After 24 h of growth, cells were exposed to the serial dilutions of the tested complexes. Complexes were dissolved in 1 % DMSO: complex 1 at a concentration of 4 mM, complexes 2–5 at a concentration of 1 mM, complexes 6–9 at a concentration of 0.6 mM, as stocks immediately prior use, and afterwards diluted with nutrient medium to desired final concentrations (in range up to 200 μM). Each concentration was tested in triplicate. After incubation periods of 48 h, 20 μL of MTT solutions (5 mg mL^−1 in phosphate buffer solution, pH 7.2) were added to each well. Samples were incubated for 4 h at 37 °C, with 5 % CO2 in a humidified atmosphere. Formazan crystals were dissolved in 100 μL of 10 % sodium dodecyl sulfate (SDS). Absorbances were recorded after 24 h, on an ELISA reader (ThermoLabsystems Multiskan EX 200–240 V), at the wavelength of 570 nm. The IC50 values, defined as the concentrations of the compound causing 50 % cell growth inhibition, were estimated from the dose-response curves.
(§3) The antiproliferative activity of the ruthenium and osmium lanthanide complexes 1–9 was evaluated for 48 h of continuous drug action, using colorimetric MTT assay. The study was performed in two human neoplastic cell lines (HeLa, A549), and human fetal lung fibroblast cell line (MRC-5), which was used as noncancerous model for in vitro toxicity evaluation. The results are shown in Table 5 in terms of IC50 values for 48 h incubation period. IC50 values are calculated as mean values obtained from two to three independent experiments and are presented with their standard deviations.
On the technique in general: Tetrazolium assays rely on reduction of a dye to a coloured formazan, in cell work by metabolically active cells.

In series [3] the test system is MRC-5 cells (normal human fetal lung fibroblast). As to the kind of experiment: MTT assay, cytotoxicity in noncancerous MRC-5 cells. In kind it is cell-based. As to conditions: 48 h treatment, 5000 cells per well, read-out: IC50 MRC-5 (5000 c per w). How it is done: as §1, §2, §3
For series [4], the system named is A549 cells (human alveolar basal adenocarcinoma). As to the kind of experiment: MTT assay, antiproliferative activity in A549 cells. Format: cell-based. The following applies: 48 h treatment, 7000 cells per well, read-out: IC50 A549 (7000 c per w). How it is done:
as §1, §2, §3

Series [5] in a line: Stability of pentanuclear assembly in aqueous solution, IR comparison of residue. Format: physicochemical. The following applies: aqueous solution evaporated to dryness after standing 24 h in air. How it is done: To exclude immediate dissociation of the pentanuclear assembly with release of a metal–oxalate fragment an aqueous solution of 5 was evaporated to dryness after standing for 24 h in air and the IR spectra of the residue and freshly prepared compound 5 were compared.

The nature of series [6]: Stability in aqueous solution by UV/Vis spectroscopy. In kind it is physicochemical. The following applies: UV/Vis spectroscopy over 96 h. The procedure:
Elemental analyses were performed by the microanalytical service of the Faculty of Chemistry of the University of Vienna on a Perkin–Elmer 2400 CHN Elemental Analyzer. UV/Vis spectra were recorded at 25 °C using a Perkin–Elmer Lambda 650 spectrometer equipped with an optical cell of 1 cm path-length in the wavelength range of 200 to 800 nm in combination with a Perkin–Elmer PTP-6 Peltier System. Electrospray ionization (ESI) mass spectrometry measurements were conducted on a Bruker HCT ion trap (Bruker Daltonics GmbH) by using methanol as a solvent. MIR spectra were recorded on a Perkin–Elmer 370 FTIR 2000 instrument using an ATR (attenuated total reflection) unit in the range of 4000–400 cm^−1. Phosphorescence emission spectra were recorded with a Horiba FluoroMax-4 spectrofluorimeter and the data were processed using the FluorEssence v3.5 software package.
The stability of the heteropentanuclear complexes 5 and 9 in aqueous solution has been investigated by UV/Vis spectroscopy over 96 h.

In series [7] the test system is cellular DNA of A549 cells. As to the kind of experiment: Ru/Os binding to cellular DNA by ICP-MS. Format: cell-based, human. As to conditions: 6 h treatment, 0.5×IC50, ICP-MS.
Series [8] concerns cellular proteins of A549 cells. Kind of series: Ru/Os binding to cellular proteins by ICP-MS. In kind it is cell-based, human. As to conditions: 24 h versus 6 h, 0.5×IC50, ICP-MS.
Series [9] has as its system A549 cells. As to the kind of experiment: Total intracellular Ru/Os accumulation by ICP-MS. As to conditions: 6 and 24 h, 0.5×IC50 of complexes 4 and 8, ICP-MS, Ru (4) relative to Os (8). Format: cell-based, human.

Turning to `N#C[S-].N#C[S-].N#C[S-].[La+3].c1cnc2c(c1)ccc1cccnc12.c1cnc2c(c1)ccc1cccnc12.c1cnc2c(c1)ccc1cccnc12` [La(phen)3(NCS)3], the “Efficacy against DLD-1 colon cancer model in vivo” value in series [1] is “highly effective”.
Take (nBu4N)2[RuCl3(ox)(NO)] [complex 1]: the IC50 in series [2] came to 55.9 ± 5.6 µM; in [3] it was 18.1 ± 6.5 µM; in series [4], 55 ± 1.6 µM.
For “(nBu4N)5[Dy(EtOH){RuCl3(μ-ox)(NO)}4] [complex 5]”, the figures for the IC50 in series [2], in [3] and in series [4] were 20 ± 2.1 µM, 13.2 ± 0.4 µM and 47 ± 6.7 µM, respectively. The “IR spectra of residue versus freshly prepared compound” value in series [5] was “no differences in the spectra observed”. In [6], the “Stability in aqueous solution (change of optical spectra)” value was “no change in the optical spectra observed”.
With “(nBu4N)5[Gd(EtOH){RuCl3(μ-ox)(NO)}4] [complex 3]”, the values for the IC50 in [2], in [3] and in series [4] were 29.1 ± 0.8 µM, 11.1 ± 0.1 µM and 26.5 ± 4 µM, respectively.
With “(nBu4N)5[Tb(EtOH){RuCl3(μ-ox)(NO)4}] [complex 4]”, the values for the IC50 in series [2], in series [3] and in [4] were 20 ± 2.4 µM, 11.9 ± 0.4 µM and 22.4 ± 3.1 µM, respectively. For the same compound, the “Metal (Ru/Os) bound to cellular DNA” value in series [7] is on record as 63.4(±1.8) pg metal μg^−1 DNA. In addition, the “Change of metal-protein binding with treatment prolongation” value in [8] was “increased to a great extent”. In series [9], the “Total intracellular accumulation of ruthenium versus osmium” value is “five- to eightfold greater”.
For the compound “(nBu4N)5[Y{OsCl3(μ-ox)(NO)}4] [complex 6]”, the IC50 in [2] was 152 ± 24 µM; in series [3] it was 115 ± 10.7 µM; in [4], over 200 µM.
The corresponding values for “(nBu4N)5[Y{RuCl3(μ-ox)(NO)}4] [complex 2]” are 17.9 ± 0.4 µM, 12 ± 0.3 µM and 56.3 ± 1.1 µM.

The term IC50 denotes the concentration at which inhibition is half-maximal.

The values are drawn from article PMC4583781, “Heteropentanuclear Oxalato-Bridged nd–4f (n=4, 5) Metal Complexes with NO Ligand: Synthesis, Crystal Structures, Aqueous Stability and Antiproliferative Activity” (Chemistry (Weinheim an Der Bergstrasse, Germany), 2015).
